Results as given in paper PMC9511493, “2-(Fluoromethoxy)-4′-(S-methanesulfonimidoyl)-1,1′-biphenyl (UCM-1306), an Orally Bioavailable Positive Allosteric Modulator of the Human Dopamine D1 Receptor for Parkinson’s Disease” (Journal of Medicinal Chemistry, 2022).
Values after ≈ are worked out from the molar mass of the structure shown.

Assays:
human D1R = target: T1, human D1R (Homo sapiens, UniProt P21728); test: potentiator-mode cAMP assay (HTRF) in SK-N-MC neuroblastoma cells endogenously expressing human D1R; format: cell-based; settings: for EC50: potency of the compound at the DA EC70 concentration
T1 construct: endogenously expressed human D1R in the SK-N-MC cell line (ATCC); host or cells: SK-N-MC human neuroblastoma cells
T1 sequence (P21728 whole entry): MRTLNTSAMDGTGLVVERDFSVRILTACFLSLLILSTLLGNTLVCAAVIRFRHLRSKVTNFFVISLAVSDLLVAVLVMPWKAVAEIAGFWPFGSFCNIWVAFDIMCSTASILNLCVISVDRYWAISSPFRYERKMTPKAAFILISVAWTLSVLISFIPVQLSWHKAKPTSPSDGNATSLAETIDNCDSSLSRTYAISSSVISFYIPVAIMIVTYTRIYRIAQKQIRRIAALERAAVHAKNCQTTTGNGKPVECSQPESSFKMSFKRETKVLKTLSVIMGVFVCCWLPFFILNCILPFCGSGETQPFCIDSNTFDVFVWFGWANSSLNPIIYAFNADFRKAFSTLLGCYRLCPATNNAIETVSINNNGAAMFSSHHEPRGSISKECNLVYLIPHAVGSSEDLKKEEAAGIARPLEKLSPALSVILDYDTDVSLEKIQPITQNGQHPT
Description: An in-house chemical library of 250 compounds was screened using an in vitro assay measuring accumulation of cAMP in a human neuroblastoma SK-N-MC cell line stably expressing physiological levels of the D1R but not the D5R.[41] To assess allosteric modulation of the D1R, cells were treated with a fixed concentration of the test compounds (10 μM) for 15 min and then co-incubated with increasing concentrations of the endogenous agonist DA. The cAMP concentration was quantified by homogeneous time-resolved fluorescence energy transfer (HTRF) and the effect of each compound on the DA concentration–response curve was measured.
The PAM efficacy was measured as the percentage of increase over DA EC70 and the potency as the EC50 observed in the concentration–response curve.
Functional studies at human D1 and D2 receptors were carried out in endogenously expressed human D1R in the SK-N-MC cell line (ATCC), and recombinant human D2R stably transfected in an in-house CHO cell line. Cells were thawed and seeded into a black 96-well plate (1 × 10^4 cells/well for SK-N-MC cell line, 5 × 10^3 cells/well for CHO cell line) in Opti-MEM containing 500 μM IBMX (3-isobutyl-1-methylxanthine).

human D2R = target: T2, human D2R (Homo sapiens, UniProt P14416); test: functional cAMP assay at recombinant human D2R in CHO cells; format: cell-based; settings: 10 μM compound
T2 construct: expressed in transfected cells; host or cells: in-house CHO cell line
T2 sequence (P14416 whole entry): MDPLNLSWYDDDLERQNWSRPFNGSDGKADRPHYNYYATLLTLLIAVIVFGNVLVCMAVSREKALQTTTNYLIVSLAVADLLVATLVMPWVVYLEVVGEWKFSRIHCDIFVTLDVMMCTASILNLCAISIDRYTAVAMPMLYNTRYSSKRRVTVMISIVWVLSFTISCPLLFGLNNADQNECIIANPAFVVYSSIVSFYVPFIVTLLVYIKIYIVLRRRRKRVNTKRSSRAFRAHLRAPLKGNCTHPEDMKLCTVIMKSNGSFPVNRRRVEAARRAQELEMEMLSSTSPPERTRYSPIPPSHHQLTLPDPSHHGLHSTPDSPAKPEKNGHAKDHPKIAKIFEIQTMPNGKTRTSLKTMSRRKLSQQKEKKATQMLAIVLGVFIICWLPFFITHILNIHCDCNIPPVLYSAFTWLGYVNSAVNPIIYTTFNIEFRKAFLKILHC
Description: Functional studies at human D1 and D2 receptors were carried out in endogenously expressed human D1R in the SK-N-MC cell line (ATCC), and recombinant human D2R stably transfected in an in-house CHO cell line. Cells were thawed and seeded into a black 96-well plate (1 × 10^4 cells/well for SK-N-MC cell line, 5 × 10^3 cells/well for CHO cell line) in Opti-MEM containing 500 μM IBMX (3-isobutyl-1-methylxanthine). Test compounds were added to the cells and incubated for 15 min at 25 °C for D1R, and for 5 min at 37 °C for D2R. After this time, dopamine was added to the corresponding wells and incubated for additional 15 min at 25 °C for D1R, and 10 min at 37 °C for D2R. Next, treated cells were lysed (for the D2R assay, cells were previously treated with 10 μM forskolin for 5 min at 37 °C) and the cAMP concentration was measured by HTRF, using a kit from Cisbio. HTRF was read in a Tecan M1000 Genius Pro reader (λexcitation = 320 nm, λemission = 620 and 665 nm, 30 flashes), and data were normalized to the dopamine maximum effect and fitted to a 4-parameter logistic equation by using Prism v2.1 software (GraphPad Inc).

[1] = solubility by nephelometry; format: physicochemical; settings: PBS buffer with 1% DMSO; maximum solubility by nephelometry
Description: Prior to use, the pre-coated PAMPA plate system was warmed to rt for 30 min and 300 μL of 200 μM solution of tested compound in 2% DMSO in PBS were added to the wells in the receiver (donor) plate.
Then, 200 μL of PBS were added to the wells in the filter (acceptor) plate. The filter plate was placed on the receiver plate by slowly lowering the pre-coated PAMPA plate until it sits on the receiver plate. The assembly was incubated at rt for 5 h, and then buffer samples were collected carefully from each plate. […]
CD(t) = compound concentration (μM) in donor well at time t, and Ceq = […]
Solubility. […] The solutions were i ncubated for 2 h at 37 °C and read in a NEPHELOstar Plus instrument (BMG LABTECH). […]
Fluorescence per well was measured using a fluorescence plate reader (Tecan Infinite M1000 pro) and percentage of inhibition was calculated. hERG ion channel inhibition. […] Cell s were maintained at 37 °C in a 5% CO2 atmosphere for 24 h and at 30 °C in a 5% CO 2 atmosphere for 48 h. hERG activity was measured by using the FluxorTM Potassium Ion Chanel Assay Kit (Thermo Fisher F10016). […] After this time, 5 µL of stimulus buffer was added to each well and fluorescence was read (λ ex = 490 nm, λem = 525 nm) every second after the establishment of a baseline line using an imaging plate reader system (FDSS7000EX, Hamamatsu®). […]

| Emax (human D1R; SK-N-MC, concentration–response curve of the compound over DA EC70, read-out: % maximum increase (efficacy over DA EC70)) [%] | Structure (SMILES) | EC50 (human D1R) [µM] | enhancement of DA Emax at human D2 receptor (human D2R) | solubility at 2 h [1] [µM] |
| --- | --- | --- | --- | --- |
| – | O=Cc1ccc(-c2ccccc2OCF)cc1 [Compound 3, 2′-(Fluoromethoxy)[1,1′-biphenyl]-4-carbaldehyde] | 12.7 ± 2.4 | did not enhance DA Emax | 15 (≈ 3.45 µg/mL) |
| 45 ± 7 | CS(=N)(=O)c1ccc(-c2ccccc2OCF)cc1 (stereo not shown) [Compound 26, 2-(Fluoromethoxy)-4′-(S-methanesulfonimidoyl)-1,1′-biphenyl] | 0.06 ± 0.01 | subtype selectivity | 50 (≈ 14 µg/mL) |
